Source: the supplement of paper PMC8837787

test system: Saccharomyces cerevisiae ABC16-Green Monster; test: growth inhibition at single dose (up to 150 µM), below the 70% cut-off for dose-response; higher = more potent; settings: 18 h; 30 °C; YPD
Outline: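 Drug-sensitive S. cerevisiae ABC16-Green Monster cells were grown overnight in YPD at 30 °C and diluted to log phase (OD600 0.1–0.2). Each library compound was added at one dose of 150 µM to 200 µl culture per well in 96-well plates, in biological duplicates, with untreated cultures alongside. OD600 was read at 0 h and after 18 h at 30 °C. The value is percent growth inhibition; compounds below 70% in both replicates were not taken to dose-response.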

Row | SMILES | growth inhibition at single dose
1 | Nc1ccc(-c2nc3cc(Oc4ccc(Oc5ccc6[nH]c(-c7ccc(N)cc7)nc6c5)cc4)ccc3[nH]2)cc1 | < 70%
2 | CN(C)c1ccc(C=Cc2nc(=O)c3ccccc3o2)cc1 | < 70%
3 | N=c1c2ccccc2nnn1-c1cccc(C(F)(F)F)c1 | < 70%
4 | CCc1nc2ccc(Cl)cn2c1C(=O)NCc1ccc(N2CCC(c3ccc(OC(F)(F)F)cc3)CC2)cc1 | < 70%
5 | CCOc1ccc(-c2nc(NC(=O)c3cccc(S(C)(=O)=O)c3)sc2C)cc1 | < 70%
6 | Oc1c2c(nc3ccccc13)CCCC2 | < 70%
7 | CC(C)c1ccc(C2C3CCc4ccccc4C3=NN2C)cc1 (configuration not stated) | < 70%
8 | Fc1ccccc1-n1cnnc1SC(c1ccccc1)c1ccccc1 | < 70%
9 | Cc1ccc2nc(C)c(-c3ccn(Cc4ccccc4)n3)n2c1 | < 70%
10 | COc1ccc(NC(=O)c2ccn[nH]2)cc1NC(=O)c1ccc(Cl)cc1F | < 70%
11 | CC1CCN(Cc2ccc(NC(=O)c3cc4ccc5cccnc5c4[nH]3)cc2)CC1 | < 70%
12 | CCCc1ccc(S(=O)(=O)Nc2ccc(CN3CCN(CC4CC4)CC3)cc2)cc1 | < 70%
13 | CO[C@@H](C(=O)N1Cc2[nH]nc(NC(=O)c3ccc(N4CCN(C)CC4)cc3)c2C1)c1ccccc1 | < 70%
14 | CC1CC(NC(=O)c2cc3c(=O)n4ccccc4nc3n2C)CC(C)(C)C1 (configuration not stated) | < 70%
15 | O=C1[C@@H](Oc2ccccc2)[C@@H](c2ccc(Cl)cc2)N1CCn1cnc2c(NCc3ccccc3)ncnc21 | < 70%
16 | CN1CCN(c2nc(Nc3ccc(O)cc3)nc3ccccc23)CC1 | < 70%
17 | Cc1c(C)n(CCCO)c2ncn3nc(-c4ccccc4O)nc3c12 | < 70%
18 | Nc1nn(C(=O)c2csc3ccccc23)c2ccccc12 | < 70%
19 | COc1ccc(C2C(C(=O)Nc3cccc(OC)c3)c3ccccc3C(=O)N2C2CCCCC2)cc1 (configuration not stated) | < 70%
20 | O=C(Nc1nc2c(s1)CCC2)c1cnn(-c2ccccc2)c1C1CC1 | < 70%
21 | COC(=O)CCSc1c2ccc(Cl)cc2nc2ccc(OC)cc12 | < 70%
22 | CCOC(=O)c1c(NC(=O)c2ccccc2)sc2c(O)c(CN(CC)CC)ccc12 | < 70%
23 | CCCc1cc(NCCN(C)C)n2ncc(-c3ccccc3)c2n1 | < 70%

Row | SMILES | growth inhibition at single dose
24 | CNC(=O)c1cc(S(=O)(=O)N2CCN(c3ccccn3)CC2)cs1 | < 70%
25 | CN(CC(=O)NC1CC1)C(=O)CNc1ccccc1Oc1ccccc1 | < 70%
26 | CCC(Sc1nc2ccccc2o1)C(=O)Nc1nccs1 (configuration not stated) | < 70%
27 | COc1cccc(-c2csc(-c3nnc4n3-c3ccccc3SC4)n2)c1 | < 70%
28 | Cc1ccccc1-n1c(C)cc(/C=C(\C#N)C(=O)NCC2CCCO2)c1C (configuration not stated) | < 70%
29 | COc1nc(Nc2ccc(C(C)C)cc2)nc(OC)n1 | < 70%
30 | O=C(Nc1ccc(CN2CCOCC2)cc1)c1ccc(-c2ccc(Br)cc2)o1 | < 70%
31 | O=C(Nc1ccc(N2CCN(Cc3ccccc3)CC2)cc1)c1cccs1 | < 70%
32 | CCOC(=O)c1cn(CC)c2cc(N(C)CCc3ccc(OC)c(OC)c3)c(F)cc2c1=O | < 70%
33 | CC(=O)Nc1nnc(SCc2c(C)cc(C(C)(C)C)cc2C)s1 | < 70%
34 | CCc1cc(C(=O)Nc2ncccc2O)sc1C | < 70%
35 | O=C(NC1CCCC1)c1ccc(N2CCC(NCc3cccc(C(F)(F)F)c3)CC2)cc1 | < 70%
36 | Cc1nc(NCc2ccc(N3CCN(C)CC3)nc2)c2c(-c3ccccc3)csc2n1 | < 70%
37 | CCCCOc1ccc(C(=O)Nc2cc(C)on2)cc1 | < 70%
38 | CCOc1ccc(-c2nc(CC(=O)NCc3ccnc(OC)c3)cs2)cc1 | < 70%
39 | COc1cc2c(cc1OC)C1=NNC(=O)C1=NC(C)(C)C2 | < 70%
40 | O=C(C1CCN(c2nnc(-n3cccc3)s2)CC1)N1CCC(Cc2ccccc2)CC1 | < 70%
41 | Nc1ccn(C2O[C@H](CO)[C@@H](O)[C@H]2O)c(=O)n1 (some centres not stated) | < 70%
42 | COc1ccc(NC(=O)C2c3ccccc3C(=O)N(CC(C)C)C2c2cccs2)cc1Cl (configuration not stated) | < 70%
43 | O=C(Nc1ccc(CN2CCOCC2)cc1)c1ccc(-c2cc(Cl)ccc2Cl)o1 | < 70%
44 | CN(CCO)c1ccc(C(=O)c2ccc(N(C)CCO)cc2)cc1 | < 70%
45 | Cc1ccc2nc(C)cc(Nc3cccc(C(F)(F)F)c3)c2c1 | < 70%
46 | O=C(Nc1ncccc1O)c1ccc(Cn2cccn2)cc1 | < 70%

Row | SMILES | growth inhibition at single dose
47 | COc1cc(C2=NCCN2)cc2cc(-c3ccc(C4=NCCN4)cc3)oc12 | < 70%
48 | CNC(=O)C1Cc2ccccc2N1C(=O)Cc1ccc(F)cc1 (configuration not stated) | < 70%
49 | CC(C)N=c1cc2n(-c3ccc(Cl)cc3)c3ccccc3nc-2cc1Nc1ccc(Cl)cc1 | < 70%
50 | O=C(Nc1ccc(Cl)cc1)Nc1nnc(CSCc2ccc(Cl)cc2)s1 | < 70%
51 | CC(C)(C)c1ccc(C(=O)NCCOc2ccccc2Cl)cc1 | < 70%
52 | C=C(C)CCC(C)N1CCC(N2CCC(C(=O)NCCc3ccccc3)CC2)CC1 (configuration not stated) | < 70%
53 | CC(Oc1ccc2ccc(=O)oc2c1)C(=O)N1CCc2ccccc21 (configuration not stated) | < 70%
54 | CCN(CC)S(=O)(=O)c1ccc(-c2csc(Nc3ccc(C)c(C)c3)n2)cc1 | < 70%
55 | Cc1cc(NC(=O)c2ccc(-c3ccccc3)cc2)no1 | < 70%
56 | N#Cc1nc(Cc2cccc3ccccc23)oc1N1CCN(C(c2ccccc2)c2ccccc2)CC1 | < 70%
57 | Nc1c2c(nc3sc4c(c13)CCCC4)CCCC2 | < 70%
58 | CC(C)(C(=O)Nc1ccc(F)cc1)n1cc(-c2ccccc2F)cn1 | < 70%
59 | Cc1cc(Nc2ccc(Cl)cc2)n2nc(C(F)(F)F)nc2n1 | < 70%
60 | COc1ccc(C=C2SC(=N)N(c3ccccc3OC)C2=O)cc1 | < 70%
61 | COc1ccc(CCN2CCC(NCc3cccc(N(C)C)c3)CC2)cc1 | < 70%
62 | CC(=O)NC(C)CCc1ccc(-c2csc(-c3ccc(NC(=O)C4CC4)cc3)n2)cc1 (configuration not stated) | < 70%
63 | Nn1c(SCC(=O)c2c[nH]c3ccccc23)nnc1C(F)(F)F | < 70%
64 | COc1ccc2nccc(NC(=O)C3CCN(CCc4ccc(Cl)cc4)CC3)c2n1 | < 70%
65 | COCc1[nH]n2c3cccc(=O)c-3nnc2c1-c1ccccc1 | < 70%
66 | COc1ccc(C(O)(CCC(C)C)C(CN2CCOCC2)c2ccc(Cl)cc2)cc1 (configuration not stated) | < 70%
67 | COc1cc(C(=O)ON=C(N)Cc2cccc3ccccc23)cc(OC)c1OC | < 70%
68 | O=C(CN1CCN(C(=O)/C=C/c2sc3ccccc3c2Cl)CC1)NC1CC1 | < 70%
69 | Cc1ccc2ncnc(NCCc3ccccc3)c2c1 | < 70%

Row | SMILES | growth inhibition at single dose
70 | COc1cccc(N(C)S(=O)(=O)c2cccc3cc(C)cnc23)n1 | < 70%
71 | O=c1nc(C=Cc2ccc(Br)cc2)oc2ccccc12 | < 70%
72 | COc1cc(C2=NCCN2)ccc1-c1cn(-c2cccc(C3=NCCN3)c2)nn1 | < 70%
73 | COc1ccc(C2(C(=O)Nc3ccc(Br)cc3)CCCC2)cc1 | < 70%
74 | Cc1ccc2cc(C3NC(=O)c4ccccc4N3)c(Cl)nc2c1 (configuration not stated) | < 70%
75 | Cc1cc(C(=O)COC(=O)c2[nH]nc3ccccc23)c(C)n1CC1CCCO1 (configuration not stated) | < 70%
76 | CC1CC1C(=O)NC1CCN(CC2(c3ccccc3)CCCCC2)CC1 (configuration not stated) | < 70%
77 | Cc1cc(Nc2ccc(C)c(Cl)c2)n2nc(C(F)(F)F)nc2n1 | < 70%
78 | O=C(Nc1ccc(N2CCOCC2)nc1)c1ccc(S(=O)(=O)N2CCCc3ccccc32)cc1 | < 70%
79 | COc1ccc(S(=O)(=O)Nc2ccc(CN3CCN(C(=O)c4cccc(C#N)c4)CC3)cc2)cc1 | < 70%
80 | C=CCn1c(SCc2c(C)noc2C)nc2scc(C3CC3)c2c1=O | < 70%
81 | Cc1cccc2c(=O)n(CC(=O)NCc3ccc(C(=O)N4CCCCC4)cc3)cnc12 | < 70%
82 | Cc1cc(NC(=O)c2cccc(S(=O)(=O)N3c4ccccc4CC3C)c2)no1 (configuration not stated) | < 70%
83 | Cc1cc(=O)n2nc(CSc3nc4ccc(Cl)cc4c(=O)n3CC(C)C)sc2n1 | < 70%
84 | COc1ccc(C2=NN(C3CCCCCC3)C(=O)[C@@H]3CC=CC[C@H]23)cc1OCCCCOc1ccc(-c2nn[nH]n2)cc1 | < 70%
85 | Clc1ccc2nc(CSc3nnc4c(n3)[nH]c3ccccc34)cn2c1 | < 70%
86 | COc1ccccc1CNC(=O)c1cc(C2CC2)nc2c1cnn2C(C)C | < 70%
87 | Cc1cc(Nc2ccncc2)n2nc(C)c(-c3ccccc3Cl)c2n1 | < 70%
88 | CCCCc1c(C)nc2c(OC)cccc2c1O | < 70%
89 | NS(=O)(=O)c1cncc(-c2ccc3nccc(-c4cn[nH]c4)c3n2)c1 | < 70%
90 | Cc1ccc(NC(=O)c2[nH]nc3c2CCCC3)cc1Cl | < 70%
91 | COc1ccc(C(=O)NC(c2ccccc2Cl)c2cc(Cl)c3cccnc3c2O)cc1 (configuration not stated) | < 70%
92 | O=C(NC1CC1)c1ccc(CN(Cc2ccco2)Cc2nc(-c3ccc(F)cc3)no2)cc1 | < 70%
